# Results published in patent US11154058B2, “Fungicidal compositions” (SYNGENTA PARTICIPATIONS AG, priority 2017, dated 2021).
# What was measured:
# [1] = tested on: Puccinia recondita f. Sp. Tritici; test: Puccinia recondita f. sp. tritici / wheat / leaf disc curative (brown rust); format: in vivo; details: foliar, compared to untreated control, read-out: disease control
# Protocol: Puccinia recondita f. Sp. Tritici/Wheat/Leaf Disc Curative (Brown Rust)
# Wheat leaf segments cv. Kanzler are placed on agar in multiwell plates (24-well format). The leaf segments are inoculated with a spore suspension of the fungus. Plates were stored in darkness at 19° C. and 75% rh. The formulated test compound or mixture composition diluted in water was applied 1 day after inoculation. The leaf segments were incubated at 19° C. and 75% rh under a light regime of 12 h light/12 h darkness in a climate cabinet and the activity of a compound or mixture composition was assessed as percent disease control compared to untreated when an appropriate level of disease damage appears in untreated check leaf segments (6-8 days after application).
# [2] = tested on: Puccinia recondita f. Sp. Tritici; test: Puccinia recondita f. sp. tritici / wheat / leaf disc preventative (brown rust); format: in vivo; details: foliar, compared to untreated control, read-out: disease control
# Protocol: Puccinia recondita f. Sp. Tritici/Wheat/Leaf Disc Preventative (Brown Rust) Wheat leaf segments cv. Kanzler were placed on agar in multiwell plates (24-well format) and sprayed with the formulated test compound or mixture composition diluted in water. The leaf disks were inoculated with a spore suspension of the fungus 1 day after application. The inoculated leaf segments were incubated at 19° C. and 75% rh under a light regime of 12 h light/12 h darkness in a climate cabinet and the activity of a compound or mixture composition was assessed as percent disease control compared to untreated when an appropriate level of disease damage appears in untreated check leaf segments (7-9 days after application).
# [3] = tested on: Blumeria graminis f. Sp. Tritici (Erysiphe graminis f. Sp. Tritici); test: Blumeria graminis f. sp. tritici / wheat / leaf disc preventative (powdery mildew on wheat); format: in vivo; details: foliar, compared to untreated control, read-out: disease control
# Protocol: Blumeria graminis f. Sp. Tritici (Erysiphe graminis f. Sp. Tritici)/Wheat/Leaf Disc Preventative (Powdery Mildew on Wheat)
# Wheat leaf segments cv. Kanzler were placed on agar in a multiwell plate (24-well format) and sprayed with the formulated test compound or mixture composition diluted in water. The leaf disks were inoculated by shaking powdery mildew infected plants above the test plates 1 day after application. The inoculated leaf disks were incubated at 20° C. and 60% rh under a light regime of 24 h darkness followed by 12 h light/12 h darkness in a climate chamber and the activity of a compound or mixture composition was assessed as percent disease control compared to untreated when an appropriate level of disease damage appears on untreated check leaf segments (6-8 days after application).
# Phakopsora pachyrhizi = Phakopsora pachyrhizi / soybean / preventative (soybean rust); format: in vivo; details: foliar, soybean leaf disc, compared to untreated control
# Protocol: Phakopsora pachyrhizi/Soybean/Preventative (Soybean Rust) Soybean leaf disks are placed on water agar in multiwell plates (24-well format) and sprayed with the formulated test compound diluted in water. One day after application leaf discs are inoculated by spraying a spore suspension on the lower leaf surface. After an incubation period in a climate cabinet of 24-36 hours in darkness at 20° C. and 75% rh leaf disc are kept at 20° C. with 12 h light/day and 75% rh. The activity of a compound is assessed as percent disease control compared to untreated when an appropriate level of disease damage appears in untreated check leaf disks (12-14 days after application).
Structure (SMILES),pest or weed control at 200 ppm [1] [%],pest or weed control at 200 ppm [2] [%],pest or weed control at 200 ppm [3] [%],pest or weed control at 200 ppm (Phakopsora pachyrhizi) [%],melting point [°C]
"CCO/N=C(\C)CC(O)(c1cc(C)c(/N=C/N(C)CC)cc1OC)C(F)(F)F (centres unmarked) [Q.001, N′-[4-[(3E)-3-ethoxyimino-1-hydroxy-1-(trifluoromethyl)butyl]-5-methoxy-2-methyl-phenyl]-N-ethyl-N-methyl-formamidine]",≥ 80,≥ 80,≥ 80,≥ 80,–
"CCCCOCC(O)(c1cc(C)c(/N=C/N(C)CC)cc1OC)C(F)(F)F (centres unmarked) [Q.002, N′-[4-[1-(butoxymethyl)-2,2,2-trifluoro-1-hydroxy-ethyl]-5-methoxy-2-methyl-phenyl]-N-ethyl-N-methyl-formamidine]",≥ 80,≥ 80,≥ 80,≥ 80,–
"COc1cc(/N=C/N(C)C(C)C)c(C)cc1C(O)(C1CC1)C(F)(F)F (centres unmarked) [Q.003, N′-[4-(1-cyclopropyl-2,2,2-trifluoro-1-hydroxy-ethyl)-5-methoxy-2-methyl-phenyl]-N-isopropyl-N-methyl-formamidine]",≥ 80,≥ 80,≥ 80,≥ 80,90 to 93
"CCN(C)/C=N/c1cc(OC)c(C(O)(COCC2CCC2)C(F)(F)F)cc1C (centres unmarked) [Q.004, N′-[4-[1-(cyclobutylmethoxymethyl)-2,2,2-trifluoro-1-hydroxy-ethyl]-5-methoxy-2-methyl-phenyl]-N-ethyl-N-methyl-formamidine]",≥ 80,≥ 80,≥ 80,≥ 80,–
"CCN(C)/C=N/c1cc(OC)c(C(O)(COC2CCCC2)C(F)(F)F)cc1C (centres unmarked) [Q.005, N′-[4-[1-(cyclopentoxymethyl)-2,2,2-trifluoro-1-hydroxy-ethyl]-5-methoxy-2-methyl-phenyl]-N-ethyl-N-methyl-formamidine]",–,–,–,≥ 80,–
"C=C(C)CC(O)(c1cc(C)c(/N=C/N(C)C(C)C)cc1OC)C(F)(F)F (centres unmarked) [Q.006, N′-[4-[1-hydroxy-3-methyl-1-(trifluoromethyl)but-3-enyl]-5-methoxy-2-methyl-phenyl]-N-isopropyl-N-methyl-formamidine]",≥ 80,≥ 80,≥ 80,≥ 80,90 to 95
"CCCCC(O)(c1cc(C)c(/N=C/N(C)C(C)C)cc1OC)C(F)(F)F (centres unmarked) [Q.007, N′-[4-[1-hydroxy-1-(trifluoromethyl)pentyl]-5-methoxy-2-methyl-phenyl]-N-isopropyl-N-methyl-formamidine]",≥ 80,≥ 80,≥ 80,≥ 80,–
"COc1cc(/N=C/N(C)C(C)C)c(C)cc1C(O)(c1ccccc1)C(F)(F)F (centres unmarked) [Q.008, N-isopropyl-N′-[5-methoxy-2-methyl-4-(2,2,2-trifluoro-1-hydroxy-1-phenyl-ethyl)phenyl]-N-methyl-formamidine]",≥ 80,≥ 80,–,≥ 80,110 to 111
"CCN(C)/C=N/c1cc(OC)c(C(O)(c2ccccc2C)C(F)(F)F)cc1C (centres unmarked) [Q.009, N-ethyl-N′-[5-methoxy-2-methyl-4-[2,2,2-trifluoro-1-hydroxy-1-(o-tolyl)ethyl]phenyl]-N-methyl-formamidine]",≥ 80,≥ 80,≥ 80,≥ 80,115 to 117
"CCN(C)/C=N/c1cc(OC)c(C(O)(c2cc(F)cc(F)c2)C(F)(F)F)cc1C (centres unmarked) [Q.010, N′-[4-[1-(3,5-difluorophenyl)-2,2,2-trifluoro-1-hydroxy-ethyl]-5-methoxy-2-methyl-phenyl]-N-ethyl-N-methyl-formamidine]",≥ 80,≥ 80,≥ 80,≥ 80,107 to 108
